Biological target: T1, soybean lipoxygenase (LOX) (Glycine max, UniProt P08170)
T1 construct: gene LOX1.1
T1 sequence (P08170 1-839): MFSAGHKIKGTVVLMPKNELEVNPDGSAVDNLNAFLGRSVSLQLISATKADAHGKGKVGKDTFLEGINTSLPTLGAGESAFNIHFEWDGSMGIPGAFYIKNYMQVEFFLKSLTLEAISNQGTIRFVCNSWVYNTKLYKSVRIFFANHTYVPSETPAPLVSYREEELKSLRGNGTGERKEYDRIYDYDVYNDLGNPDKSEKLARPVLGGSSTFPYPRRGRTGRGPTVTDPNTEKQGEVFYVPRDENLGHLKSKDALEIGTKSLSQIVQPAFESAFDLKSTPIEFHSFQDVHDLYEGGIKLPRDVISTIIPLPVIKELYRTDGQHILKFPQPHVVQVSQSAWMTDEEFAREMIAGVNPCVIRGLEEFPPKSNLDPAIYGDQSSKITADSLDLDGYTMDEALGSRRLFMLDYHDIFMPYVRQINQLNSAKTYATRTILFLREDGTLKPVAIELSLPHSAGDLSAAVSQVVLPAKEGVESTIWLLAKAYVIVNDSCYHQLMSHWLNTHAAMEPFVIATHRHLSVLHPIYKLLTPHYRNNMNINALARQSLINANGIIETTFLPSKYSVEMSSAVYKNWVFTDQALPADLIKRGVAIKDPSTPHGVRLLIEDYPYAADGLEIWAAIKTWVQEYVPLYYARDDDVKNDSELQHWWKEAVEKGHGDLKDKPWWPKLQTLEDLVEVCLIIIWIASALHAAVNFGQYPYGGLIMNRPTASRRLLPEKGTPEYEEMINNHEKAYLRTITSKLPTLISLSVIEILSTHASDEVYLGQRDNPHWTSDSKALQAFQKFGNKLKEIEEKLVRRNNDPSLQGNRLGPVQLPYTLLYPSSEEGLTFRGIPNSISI
Assay: soybean lipoxygenase, linoleate oxidation at […] nm
Type: biochemical
Conditions: read-out: LOX inhibition (IC50 [μM]/%)

Row | IC50 [µM] | SMILES
1 | 60 | C/[N+]([O-])=C/c1ccccc1/C=[N+](/C)[O-] [HBN7, (1Z,1′Z)-1,1′-(1,2-Phenylene)bis(N-methylmethanimineoxide)]
2 | 57.5 | CC(C)(C)/[N+]([O-])=C/c1ccccc1/C=[N+](\[O-])C(C)(C)C [HBN8, (1Z,1′Z)-1,1′-(1,2-Phenylene)bis(N-tert-butylmethanimineoxide)]
3 | 85 | [O-]/[N+](=C\c1ccccc1/C=[N+](\[O-])Cc1ccccc1)Cc1ccccc1 [HBN9, (1Z,1′Z)-1,1′-(1,2-Phenylene)bis(N-benzylmethanimineoxide)]

— article PMC7447640, “Synthesis, antioxidant properties and neuroprotection of α-phenyl-tert-butylnitrone derived HomoBisNitrones in in vitro and in vivo ischemia models” (Scientific Reports, 2020)
